What is called melting point is the temperature of the solid-liquid transition.

Molecule `CN(C)c1ccc(C(=O)Nc2ccc3ccc(Cl)nc3n2)cc1` returned a melting point of 248 °C.

For the molecule `N[C@@H](Cc1cccc(OCC(F)(F)F)c1)[C@H](O)c1ccc(F)cc1` (racemic), the melting point lay in the range of 94 to 95 °C. Next, `COc1cc(-c2cc(=O)c3c(OC)cc(OC)c(C4=CCN(C)CC4)c3o2)cc(OC)c1OC`: 211 to 212 °C; `O=C(O)Cn1cccc(NC(=O)OCc2ccccc2)c1=O`: 171 to 173 °C; `CN1CCCC2C(=NO)CCCC21` (stereo unspecified): 169 to 171 °C. On to `CN(C(=O)On1ccnn1)c1ccccc1`, for which the melting point was in the range of 105 to 106 °C. The value for `CS(=O)(=O)Nc1cc(C=C2c3ccccc3CCc3ccccc32)ccc1O` was 123 °C. The value for `CC=Cc1cnc(C2=NC(C)(C(C)C)C(=O)N2)c(C(=O)O)c1` (stereo unspecified) was 175 to 176 °C. The value for `COCCn1c(SC)nc(-c2ccc(F)cc2)c1-c1ccnc(Nc2ccccc2)c1` was 108 °C. Take `CC(C)(C)P1(=S)CCC1`: the melting point lay within 120 to 121 °C.

In turn, `CCC(=O)c1cc(Cl)c(C)cc1OC` displayed a melting point of 79 °C. In the case of `CC(C)n1nc(-c2c(-c3ccccc3)nn3ccc(OCCN4CC4)cc23)ccc1=O`, the melting point fell in the range of 159 to 160 °C. The value for `CCC(=O)OC1=CC(=O)CC(NC(=O)N(C)C)C1` (stereo unspecified) was 69 to 74 °C. Next, `C=CCc1c(O)c(C)cc2ccc(=O)oc12`: 161 to 162 °C; `N#Cc1cc(C(O)CNC2CCCC2)ccc1N` (stereo unspecified): 158 to 160 °C. The value for `Fc1cccc(CCc2nnc(-c3ccnc(NCCCc4ccccc4)c3)o2)c1` was 91 to 92 °C; that for `Cc1cccc(C2(Cn3cncn3)OCCO2)c1` was 105 °C; that for `CSc1ccc(C(N)=O)c([N+](=O)[O-])c1` was 176 to 178 °C.

Take `Nc1ccc(F)cc1-c1nc[nH]n1`: the melting point was 142 to 144 °C. The value for `Cc1cc([N+](=O)[O-])cc(C)c1Oc1ccc(O)c(C(=O)c2ccc(F)cc2)c1` was 148 to 150 °C; that for `Brc1ccc(Nc2ncc3cc4ccccc4n3n2)cc1` was 237 to 243 °C. The value for `COc1ccc(C(=O)NS(=O)(=O)C=Cc2ccc(Cl)c(Cl)c2)cc1OC` was 145 to 147 °C; that for `COP(=O)(OC)[C@H](C)NC(=O)[C@H](C)NC(=O)[C@H](C)NC(=O)CNC(=O)OCc1ccccc1` was 162 to 164 °C. The value for `O=CC1CC1Nc1nccc(-n2nnc3ccccc32)n1` (stereo unspecified) was 99 to 100 °C; that for `CSCC(C)(C)c1nnc(N)s1` was 117 to 120 °C.

Turning to `Cc1cc2c(s1)N(C)c1ccccc1N=C2N1CCN(C)CC1`, the melting point lay within 126 to 128 °C. Next, `Clc1nc2ccccc2c2[nH]c3ccccc3c12`: 249 to 250 °C; `OCCn1nccc1-c1ccc(Oc2ccc(F)cc2)cc1`: 71 to 72 °C; `Oc1ccc2cc(OCC(O)CCc3cccnc3)ccc2c1` (stereo unspecified): 165 to 166 °C.

Molecule `COc1cc2nc(N)nc(-c3ccccc3OC(F)(F)F)c2cc1OC` displayed a melting point of 235 to 237 °C. The value for `O=S(=O)(Nc1cccc2cc(-c3nc4ccccc4s3)[nH]c12)c1cccs1` was 201 to 202 °C; that for `N#Cc1cc(-c2nc3cncnc3s2)ccc1Oc1ccc(Cl)cc1` was 179 to 180 °C. Next, `COc1cc(NS(=O)(=O)c2ccc(Cl)cc2)c(C(=O)Nc2ccc(S(=O)(=O)N3CCSCC3)cc2)cc1OC`: 216 to 219 °C; `COc1ccc(C(=O)c2ccc(OCc3nc(-c4ccccc4)oc3C)cc2)c(OCCC(=O)O)c1`: 142 to 143 °C; `Cc1cc(C)c2cccc(OCc3c(C)ccc(S(=O)(=O)N4CCC[C@H]4C(=O)NCCCNC(=O)c4ccc(C=NN)cc4)c3C)c2n1`: 150 °C.

As to `C=C1C(=O)N(C)CCC1(CC(=O)OC)c1cccc(OC)c1` (stereo unspecified), the melting point is 85 to 86 °C.

Source of the values: a melting point compilation (Tetko et al.; mined from patent text by program, amines drawn as free bases though some values may be those of a salt).
